Reference: patent US4897426A, “Method for blocking calcium channels” (New York University, priority 1989, dated 1990)
Where two headings read alike, the source gives them in different places.

Experiments:
[1] = tested on: high-threshold calcium conductance (HTCC); settings: 10^-4 M butanol; sodium channel blocked by tetrodotoxin
bovine platelets = settings: cited from earlier work
[2] = tested on: low-threshold calcium channels (LTCC); test: Intracellular recording of low-threshold calcium rebound spike in inferior olivary cells of brain slices (LTCC blockage); assay type: cell-based, guinea pig
[3] = tested on: synaptosomes isolated from rat brains; settings: ethanol 2.5×10^-2 -1.5×10^-1 M; cited from earlier work
[4] = read-out: Blood level; one or two drinks of an alcohol-containing beverage; cited from earlier work
[5] = tested on: rat brain synaptic membrane vesicles; settings: 10^-1 M; cited from earlier work
[6] = in vivo; cited from earlier work
tremor [7] = test: Harmaline-induced tremor, electromyogram of left platysma muscle; assay type: in vivo, Sprague-Dawley rats
Method: In order to analyze the effects of LTCC-blocking agents in vivo, octanol was administered to rats. Alcohols were diluted with physiological saline and sonicated to ensure mixing to create a concentration of alcohol around the neurons equivalent to 10^-6 M (at most). The alcohol was administered intraperitoneally at a concentration of to 10 mM. […] (Harmaline is available from Sigma Chemical Co., St. Louis, M.) The thus-induced tremor has a periodicity similar to physiological or enhanced physiological tremor.
Therefore, study of I.O. cells of mammals in which tremor has been induced with harmaline provides an excellent in vivo model for studying tremor response in mammals.
Tremor can be measured by electromyogram conducted according to Buchthal, F., et al., Acta Physio. Scand. 39: 83-104, 1957, incorporated by reference.
The electric activity in the left platysma muscle of 278 to 300 g Sprague-Dawley rats (from Taconic Farms, Germantown, N.Y.) was recorded differentially using two teflon-coated stranded silver wires (2 mm of wire exposed) placed in the belly of the muscle. The electromyogram (emg) was recorded throughout the experiment and the data were analyzed at the following times: (1) before administration of any drugs; (2) after intraperitoneal injection of 15 mg/kg harmaline; and (3) after subsequent intraperitoneal injection of 2 cc of 10 mM 1-octanol (99% octanol sonicated in physiological saline) given to create a concentration of 9.3 micrograms/g of rat body weight or 7×10^-5 M in the vicinity of the neuronal cells (if all the alcohol was to be absorbed, and none metabolized). The emg was smoothed and differentiated (to further decrease the background noise) using a Nicolet Explorer Model 4060 digital oscilloscope (from Nicolet Instrument Corp., Madison, Wis.). This instrument was also used to obtain autocorrelograms of 800-ms sections of the emg's. Autocorrelograms were obtained by superimposing 800-ms sections of the emg signals. The emerging patterns (if any) can be used to determine frequency and amplitude characteristics of the emg that may not be readily discernible from the naked emg signal.

tremor [8] = settings: cited from earlier work
[9] = Solubility in aqueous media; assay type: physicochemical; settings: relative to most effective concentration for blocking LTCC
LTCC = test: Voltage clamp study of LTCC in I.O. neurons; assay type: cell-based, guinea pig; settings: octanol 10^-6 M; depolarization steps of 5 mV from holding potential -80 mV
Source text: Adult Hartley guinea pigs (400-600 g) from Camm Research Institute, Wayne, N.J. were decapitated, after ether anesthesia, using a small animal guillotine. Immediately thereafter, two longitudinal sections were made along the lateral edge of the squamous portion of the occipital bone. The resulting bone slab was cut transversely, and pulled caudalward to expose the cerebellum and brain stem. […] It was then transected longitudinally in a parasagittal plane and fixed to a Vibratome Model G plate (available from Ted Pella, Inc., Tustin, Calif.) in order to obtain thin longitudinal sections. From a single brain stem, six 300-micron slices could be obtained. Following sectioning, the slices were incubated in Ringer's solution for approximately one hour. The bathing medium was kept at room temperature and a mixture of 95% O2 and 5% CO2 was bubbled into the bath during this period. Brain stem slices were removed from the incubation bath after one hour but could be kept in good condition in the bath for periods of time up to 24 hours. […]
The results presented in this Example were recorded in I.O. neurons from different parts of the nucleus. […] In these experiments, the ionic current across the membrane was measured after a voltage clamp pulse was applied across the membrane. […]

squid axons = settings: octanol 10^-4 M; cited from earlier work
[10] = complete blockage of LTCC, for hexanol through decanol nominal, 10^-6 M at most (not fully soluble)
[11] = harmaline 15 mg/kg i.p., no alcohol
[12] = 2 cc of 10 mM 1-octanol i.p. after harmaline 15 mg/kg i.p.

CCCCO [butanol]
Effect on the HTCC [1]: absence of any effect on the HTCC
Inhibition of calcium mobilization (bovine platelets; 5×10^-2 M): inhibitors of calcium mobilization
Inhibition of the LTCC or rebound spike [2]: inhibition of the LTCC or rebound spike
Preferred highest molar concentration / operative range for substantial and total blockage of LTCC: To About [2]: ~10^-6

CCCCCCCCCCO [decanol]
Preferred highest molar concentration / operative range for substantial and total blockage of LTCC: From About [2, 10]: ~10^-6 M

CCO [ethanol]
Inhibition of voltage-dependent calcium uptake [3]: inhibited voltage-dependent calcium uptake
concentration [4]: ~10000 µM
Inhibition of calcium influxes [5]: inhibited calcium influxes
Intoxicating and addictive properties [6]: well-known
Preferred highest molar concentration / operative range for substantial and total blockage of LTCC: From About [2]: ~10^-3
Preferred highest molar concentration / operative range for substantial and total blockage of LTCC: To About [2]: ~10^-4

COc1ccc2c3c([nH]c2c1)C(C)=NCC3 [harmaline, reference compound]
Tremor induction (tremor [7]; harmaline 15 mg/kg i.p.): periods of generalized tremor
Degree of autocorrelation of emg (tremor [7]; [11]): high degree of autocorrelation
Dominant frequency of tremor (tremor [7]; [11]): 7.5 Hz
Induction of tremor in mammals (known) (tremor [8]): known to induce tremor in mammals

CCCCCCCO [heptanol]
Preferred highest molar concentration / operative range for substantial and total blockage of LTCC: From About [2, 10]: ~10^-6 M

CCCCCCO [hexanol]
Inhibition of calcium mobilization (bovine platelets; 5×10^-3 (unit not given)): inhibitors of calcium mobilization
Preferred highest molar concentration / operative range for substantial and total blockage of LTCC: From About [2, 10]: ~10^-6 M

CCCCCCCCCO [nonanol]
Preferred highest molar concentration / operative range for substantial and total blockage of LTCC: From About [2, 10]: ~10^-6 M

CCCCCCCCO [octanol, 1-octanol]
Baseline muscle activity (tremor [7]; [12]): reduced below control levels
Dominant frequency of emg (tremor [7]; [12]): 10 Hz
Tremor after harmaline and alcohol (tremor [7]; [12]): the tremor stopped
Solubility in aqueous media [9]: corresponds closely to the most effective concentration for blocking the LTCC
Blockage of low-threshold calcium ionic current (LTCC): completely blocked the ionic conductance
Blockage of calcium-dependent rebound potentials (LTCC) ([2]; 10^-6 M octanol in bath, sodium spike blocked with 10^-6 M tetrodotoxin): complete blockage of the calcium-dependent rebound potentials
Blockage of the rebound calcium spike following membrane hyperpolarization ([2]; 10^-6 M octanol, hyperpolarizing square current pulse, 10^-6 M tetrodotoxin): blocked
Preferred highest molar concentration / operative range for substantial and total blockage of LTCC: From About [2, 10]: ~10^-6 M
Observed intracellular calcium concentration (squid axons): apparent increase in the observed intracellular calcium concentration

CCCCCO [pentanol]
Preferred highest molar concentration / operative range for substantial and total blockage of LTCC: From About [2, 10]: ~10^-6 M
